Data as given in paper PMC5569448 (Iranian Journal of Basic Medical Sciences, 2017).

Experiments:
Assay type in all cases: biochemical
[1] = biological target: butyrylcholinesterase (BuChE) (Homo sapiens, UniProt P06276); test: BuChE inhibition by Ellman's method; conditions: for inhibition at 35 µM: read-out: BuChE % inhibition
[2] = biological target: acetylcholinesterase (AChE) (Homo sapiens, UniProt P22303); test: AChE inhibition by Ellman's method; conditions: for inhibition at 35 µM: read-out: AChE % inhibition
[3] = biological target: AChE (Homo sapiens, UniProt P22303); test: Kinetic study of AChE inhibition
Chain of AChE (P22303 32-614, species assumed): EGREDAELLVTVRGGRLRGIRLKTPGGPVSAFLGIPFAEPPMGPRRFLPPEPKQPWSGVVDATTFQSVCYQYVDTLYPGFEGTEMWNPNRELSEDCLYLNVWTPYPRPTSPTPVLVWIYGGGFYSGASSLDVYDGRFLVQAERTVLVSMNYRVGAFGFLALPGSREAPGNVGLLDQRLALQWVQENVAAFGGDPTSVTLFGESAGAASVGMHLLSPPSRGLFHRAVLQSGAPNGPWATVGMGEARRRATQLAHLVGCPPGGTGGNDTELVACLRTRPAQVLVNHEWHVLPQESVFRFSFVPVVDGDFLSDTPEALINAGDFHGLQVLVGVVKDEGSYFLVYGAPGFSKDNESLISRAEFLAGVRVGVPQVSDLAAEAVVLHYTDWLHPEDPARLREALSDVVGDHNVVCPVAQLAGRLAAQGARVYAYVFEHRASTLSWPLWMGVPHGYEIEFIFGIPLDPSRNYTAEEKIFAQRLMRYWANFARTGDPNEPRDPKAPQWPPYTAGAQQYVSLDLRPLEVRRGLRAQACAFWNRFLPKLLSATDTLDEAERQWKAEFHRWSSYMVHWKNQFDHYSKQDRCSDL

Chain of butyrylcholinesterase (BuChE) (P06276 29-602): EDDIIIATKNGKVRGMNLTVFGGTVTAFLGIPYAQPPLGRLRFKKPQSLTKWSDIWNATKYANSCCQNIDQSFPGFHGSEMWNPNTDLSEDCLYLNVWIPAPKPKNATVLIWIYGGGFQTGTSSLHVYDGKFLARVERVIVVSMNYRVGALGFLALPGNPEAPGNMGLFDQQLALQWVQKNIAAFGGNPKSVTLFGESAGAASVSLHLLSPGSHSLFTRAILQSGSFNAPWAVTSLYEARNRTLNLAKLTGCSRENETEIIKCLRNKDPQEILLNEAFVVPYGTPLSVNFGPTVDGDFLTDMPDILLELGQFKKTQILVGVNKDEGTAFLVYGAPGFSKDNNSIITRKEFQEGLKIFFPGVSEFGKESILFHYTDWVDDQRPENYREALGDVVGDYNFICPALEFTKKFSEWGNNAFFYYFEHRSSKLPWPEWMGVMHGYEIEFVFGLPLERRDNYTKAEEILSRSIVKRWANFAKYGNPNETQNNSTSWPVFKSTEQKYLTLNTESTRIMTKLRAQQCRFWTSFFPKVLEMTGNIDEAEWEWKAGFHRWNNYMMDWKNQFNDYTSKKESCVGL
Chain of acetylcholinesterase (AChE) (P22303 32-614, species assumed): as the sequence (P22303 32-614, species assumed) above

With `O=c1ccc2ccc(OCCCCOc3cccc4cccnc34)cc2o1` [Compound 3a, 7-(4-(Quinolin-8-yloxy)butoxy)-2H-chromen-2-one] the IC50 [1] was 28.3 µM and the inhibition at 35 µM [2] was 48%.
For `O=c1ccc2ccc(OCCCCCOc3cccc4cccnc34)cc2o1` [Compound 3b, 7-((5-(Quinolin-8-yloxy)pentyl)oxy)-2H-chromen-2-one], the Ki [3] was 1.32 µM, the “type of AChE inhibition” value ([3]; Lineweaver-Burk plot, substrate ATChI) was “mixed-type inhibition” and the IC50 [1] was 26.5 µM. The IC50 [2] was 8.8 µM.
Compound `Cc1cc(=O)oc2cc(OCCCOc3cccc4cccnc34)ccc12` [Compound 3c, 4-Methyl-7-(3-(quinolin-8-yloxy)propoxy)-2H-chromen-2-one] has an IC50 [1] of 32.4 µM and an IC50 [2] of 11.3 µM.
For `Cc1cc(=O)oc2cc(OCCCCCOc3cccc4cccnc34)ccc12` [Compound 3d, 4-Methyl-7-((5-(quinolin-8-yloxy)pentyl)oxy)-2H-chromen-2-one], the inhibition at 35 µM [1] was 34.6% and the IC50 [2] was 14 µM.
With `CCOC(=O)c1cc2ccc(OCCCOc3cccc4cccnc34)cc2oc1=O` [Compound 3e, Ethyl 2-oxo-7-(3-(quinolin-8-yloxy)propoxy)-2H-chromene-3-carboxylate] the inhibition at 35 µM [1] was 46% and the IC50 [2] was 16.2 µM.
`CCOC(=O)c1cc2ccc(OCCCCCOc3cccc4cccnc34)cc2oc1=O` [Compound 3f, Ethyl 2-oxo-7-((5-(quinolin-8-yloxy)pentyl)oxy)-2H-chromene-3-carboxylate] showed an inhibition at 35 µM [1] of 29.2% and an IC50 [2] of 8.94 µM.
`O=C(O)c1cc2ccc(OCCCOc3cccc4cccnc34)cc2oc1=O` [Compound 3g, 2-Oxo-7-(3-(quinolin-8-yloxy)propoxy)-2H-chromene-3-carboxylic acid] was tested, and the inhibition at 35 µM [1] was 2% and the inhibition at 35 µM [2] was 15%.
In the case of `O=c1cc(-c2ccccc2)c2ccc(NCCCOc3cccc4cccnc34)cc2o1` [Compound 3h, 4-Phenyl-7-((3-(quinolin-8-yloxy)propyl)amino)-2H-chromen-2-one], the inhibition at 35 µM [1] is reported as 37% and the IC50 [2] is reported as 30.2 µM.
`O=c1ccc2ccc(OCCCCCSc3nc4ccccc4[nH]3)cc2o1` [Compound 3i, 7-((5-((1H-Benzo[d]imidazol-2-yl)thio)pentyl)oxy)-2H-chromen-2-one] was tested, and the inhibition at 35 µM [1] was 38% and the IC50 [2] was 11.7 µM.
For `O=c1ccc2ccc(OCCCCCSc3nc4ccccc4o3)cc2o1` [Compound 3j, 7-((5-(Benzo[d]oxazol-2-ylthio)pentyl)oxy)-2H-chromen-2-one], the inhibition at 35 µM [1] was 14% and the IC50 [2] was 25.4 µM.
For `Cc1cc(=O)oc2cc(OCCCSc3nc4ccccc4o3)ccc12` [Compound 3k, 7-(3-(Benzo[d]oxazol-2-ylthio)propoxy)-4-methyl-2H-chromen-2-one], the inhibition at 35 µM [1] was 11% and the inhibition at 35 µM [2] was 44%.
In the case of `O=c1cc(-c2ccccc2)c2ccc(NCCCSc3nc4ccccc4o3)cc2o1` [Compound 3l, 7-((3-(Benzo[d]oxazol-2-ylthio)propyl)amino)-4-phenyl-2H-chromen-2-one], the inhibition at 35 µM [1] is reported as 26% and the IC50 [2] is reported as 13 µM.
